Measurements as given in PubChem BioAssay AID248 (DTP/NCI, 2004).
“And” between values parts separate entries of the source, which are not always exact repeats. Identical values can stand only once. Toxic doses and inconclusive results are not listed. Cut-off read from the data, not from the text of the source: active = T/C of 150% or more; inactive = T/C below 125%.

System: L1210 leukemia ip in BDF1 mice, survival T/C
Assay: NCI In Vivo Anticancer Drug Screen. Data for tumor model L1210 Leukemia (intraperitoneal) in B6D2F1 (BDF1) mice
Conditions: endpoint: mean survival time, higher = longer survival
Summary of the method: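 In this screen, tumor-bearing mice given compound are compared to those given vehicle, and their survival values are reported as a treated-to-control quotient.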

[1] = dose: 100.0 mg/kg/injection, schedule: Q04DX002 (ip), vehicle: Klucel (hydroxypropylcellulose) (HPC)
[2] = dose: 200.0 mg/kg/injection, schedule: Q04DX002 (ip), vehicle: Klucel (hydroxypropylcellulose) (HPC)
[3] = dose: 400.0 mg/kg/injection, schedule: Q04DX002 (ip), vehicle: Klucel (hydroxypropylcellulose) (HPC)
[4] = dose: 100.0 mg/kg/injection, schedule: Q01DX001 (ip), vehicle: carboxymethylcellulose (CMC)
[5] = dose: 200.0 mg/kg/injection, schedule: Q01DX001 (ip), vehicle: carboxymethylcellulose (CMC)
[6] = dose: 400.0 mg/kg/injection, schedule: Q01DX001 (ip), vehicle: carboxymethylcellulose (CMC)
[7] = dose: 100.0 mg/kg/injection, schedule: Q04DX002 (ip), vehicle: saline with Tween-80
[8] = dose: 200.0 mg/kg/injection, schedule: Q04DX002 (ip), vehicle: saline with Tween-80
[9] = dose: 400.0 mg/kg/injection, schedule: Q04DX002 (ip), vehicle: saline with Tween-80
[10] = dose: 100.0 mg/kg/injection, schedule: Q01DX009 (ip), vehicle: saline
[11] = dose: 100.0 mg/kg/injection, schedule: Q04DX003 (ip), vehicle: saline
[12] = dose: 200.0 mg/kg/injection, schedule: Q04DX003 (ip), vehicle: saline
[13] = dose: 400.0 mg/kg/injection, schedule: Q04DX003 (ip), vehicle: saline
[14] = dose: 100.0 mg/kg/injection, schedule: Q04DX002 (ip), vehicle: saline
[15] = dose: 200.0 mg/kg/injection, schedule: Q04DX002 (ip), vehicle: saline
[16] = dose: 400.0 mg/kg/injection, schedule: Q04DX002 (ip), vehicle: saline

Measured: T/C

CC1=C(O)C(=O)C(C2=C(O)C(=O)C(C)=C(O)C2=O)=C(O)C1=O
inactive: dose: 0.1 mg/kg/injection, schedule: Q01DX Z (ip), vehicle: carboxymethylcellulose (CMC) 111 % of control | dose: 0.2 mg/kg/injection, schedule: Q01DX Z (ip), vehicle: carboxymethylcellulose (CMC) 105 % of control | dose: 0.5 mg/kg/injection, schedule: Q01DX Z (ip), vehicle: carboxymethylcellulose (CMC) 94 % of control | dose: 1.0 mg/kg/injection, schedule: Q01DX Z (ip), vehicle: carboxymethylcellulose (CMC) 94 % of control | dose: 5.0 mg/kg/injection, schedule: Q01DX001 (ip), vehicle: carboxymethylcellulose (CMC) 103 % of control | dose: 10.0 mg/kg/injection, schedule: Q01DX001 (ip), vehicle: carboxymethylcellulose (CMC) 102 % of control | dose: 12.0 micrograms/kg/injection, schedule: Q01DX Z (ip), vehicle: carboxymethylcellulose (CMC) 101 % of control | dose: 25.0 micrograms/kg/injection, schedule: Q01DX Z (ip), vehicle: carboxymethylcellulose (CMC) 101 % of control | dose: 50.0 micrograms/kg/injection, schedule: Q01DX Z (ip), vehicle: carboxymethylcellulose (CMC) 101 % of control

Oc1ccc(-c2ccccc2)cc1O
inactive: dose: 100.0 mg/kg/injection, schedule: Q01DX001 (ip), vehicle: saline 105 % of control | dose: 200.0 mg/kg/injection, schedule: Q01DX001 (ip), vehicle: saline 109 % of control | dose: 400.0 mg/kg/injection, schedule: Q01DX001 (ip), vehicle: saline 109 % of control

NC(=O)Cc1ccc(C(C2=C(O)c3ccccc3C(=O)C2=O)C2=C(O)c3ccccc3C(=O)C2=O)cc1
inactive: dose: 75.0 mg/kg/injection, schedule: Q01DX001 (ip), vehicle: saline 96 % of control | dose: 150.0 mg/kg/injection, schedule: Q01DX001 (ip), vehicle: saline 101 % of control | dose: 300.0 mg/kg/injection, schedule: Q01DX001 (ip), vehicle: saline 91 % of control

COc1ccc(NC(=O)c2cccc(C(=O)Nc3ccc(OC)cc3Cl)c2)c(Cl)c1
inactive: [1] 97 % of control | [2] 97 % of control | [3] 90 % of control

COc1ccc(Br)cc1CCC=O
inactive: [4] 100 % of control | [5] 100 % of control | [6] 100 % of control

Nc1cc2c(cc1Cl)-c1ccccc1/C2=N\O
inactive: [4] 110 % of control | [5] 98 % of control | [6] 102 % of control

COC(=O)NS(=O)(=O)C1=Cc2cccc3cccc1c23
inactive: [1] 103 % of control | [2] 100 % of control | [3] 113 % of control

Cc1ccc(/C(=N\N=C(N)N)C2CC2)cc1
inactive: dose: 15.0 mg/kg/injection, schedule: Q01DX Z (ip), vehicle: methylcellulose (MC) 102 % of control | dose: 30.0 mg/kg/injection, schedule: Q01DX Z (ip), vehicle: methylcellulose (MC) 113 % of control | dose: 60.0 mg/kg/injection, schedule: Q01DX Z (ip), vehicle: methylcellulose (MC) 112 % of control | dose: 120.0 mg/kg/injection, schedule: Q01DX Z (ip), vehicle: methylcellulose (MC) 97 % of control | dose: 120.0 mg/kg/injection, schedule: Q01DX Z (oral), vehicle: methylcellulose (MC) 96 % of control | dose: 240.0 mg/kg/injection, schedule: Q01DX Z (ip), vehicle: methylcellulose (MC) 99 % of control | dose: 240.0 mg/kg/injection, schedule: Q01DX Z (oral), vehicle: methylcellulose (MC) 98 % of control | dose: 480.0 mg/kg/injection, schedule: Q01DX Z (oral), vehicle: methylcellulose (MC) 90 % of control

O=C(O)c1cc(S(=O)(=O)F)ccc1O
inactive: [7] 101 % of control | [8] 101 % of control | [9] 104 % of control

C#CC[N+](CC#C)(CC#C)CC#C
inactive: dose: 25.0 mg/kg/injection, schedule: Q01DX009 (ip), vehicle: saline 96 % of control | dose: 50.0 mg/kg/injection, schedule: Q01DX009 (ip), vehicle: saline 102 % of control | [10] 104 % of control

O=C(O)CCCN1C/C(=C\c2ccccc2)C(=O)C1=O
inactive: [11] 104 % of control | [12] 101 % of control | [13] 98 % of control

CC1=C(N)NN(O)C=C1
inactive: [14] 104 % of control | [15] 116 % of control | [16] 101 % of control

CCC(=O)c1ccc(OC(=O)Nc2ccc(Cl)cc2[N+](=O)[O-])cc1
inactive: dose: 100.0 mg/kg/injection, schedule: Q01DX009 (ip), vehicle: saline with Tween-80 100 % of control and 92 % of control | [7] 97 % of control and 113 % of control | dose: 100.0 mg/kg/injection, schedule: Q04DX003 (ip), vehicle: saline with Tween-80 102 % of control | dose: 200.0 mg/kg/injection, schedule: Q01DX009 (ip), vehicle: saline with Tween-80 96 % of control and 103 % of control | [8] 97 % of control and 91 % of control | dose: 200.0 mg/kg/injection, schedule: Q04DX003 (ip), vehicle: saline with Tween-80 95 % of control | dose: 400.0 mg/kg/injection, schedule: Q01DX009 (ip), vehicle: saline with Tween-80 92 % of control | [9] 95 % of control and 92 % of control | dose: 400.0 mg/kg/injection, schedule: Q04DX003 (ip), vehicle: saline with Tween-80 97 % of control

Cc1ccc2[nH]c(C)cc(=O)c2c1
inactive: dose: 2.5 mg/kg/injection, schedule: Q01DX009 (ip), vehicle: saline 109 % of control | dose: 5.0 mg/kg/injection, schedule: Q01DX009 (ip), vehicle: saline 95 % of control | dose: 10.0 mg/kg/injection, schedule: Q01DX001 (ip), vehicle: saline 104 % of control | dose: 10.0 mg/kg/injection, schedule: Q01DX009 (ip), vehicle: saline 106 % of control | dose: 20.0 mg/kg/injection, schedule: Q01DX001 (ip), vehicle: saline 101 % of control | dose: 40.0 mg/kg/injection, schedule: Q01DX001 (ip), vehicle: saline 98 % of control

CC1(C)CC(=O)c2c(cc3c(c2O)C(=O)CC(C)(C)O3)O1
inactive: [10] 94 % of control | [11] 100 % of control | dose: 200.0 mg/kg/injection, schedule: Q01DX009 (ip), vehicle: saline 94 % of control | [12] 94 % of control | dose: 400.0 mg/kg/injection, schedule: Q01DX009 (ip), vehicle: saline 95 % of control | [13] 106 % of control

CCCCCCCC(=O)N1C(C)CCCC1C (configuration not stated)
inactive: [14] 114 % of control | [15] 111 % of control | [16] 104 % of control

CCS(=O)(=O)N1CCC(C)CC1
inactive: [7] 96 % of control | [8] 101 % of control | [9] 103 % of control

CN(CC(C)(C)C=O)C(=O)c1ccccc1
inactive: [11] 96 % of control | [12] 103 % of control | [13] 100 % of control
